One test concerns the target Bcl-XL (Homo sapiens, UniProt Q07817). Nature of the test: fluorescence polarization (FP) assay, disruption of the Bcl-XL/BH3 interaction. In kind it is binding. To be noted: for inhibition at 100 µM: read-out: % Inhibition Bcl-XL; for inhibition at 50 µM: 50 μM acylsulfonamide, disruption of Bcl-XL/BH3 interaction in FP assay, read-out: Percentage Inhibition at 50 μM acylsulfonamide concentrations. (In general: Polarisation of emitted light reports the rotation of a fluorescent probe.)

A further test addresses Mcl-1 (Homo sapiens, UniProt Q07820). Put plainly: fluorescence polarization (FP) assay, disruption of the Mcl-1/BH3 interaction. In kind it is binding. To be noted: for inhibition at 100 µM: read-out: % Inhibition Mcl-1.
The mark [1] stands for this setting: reactive fragments (SZ, TA), 100 μM per FIG. 22 legend, FP assay.

Where two headings read alike, the source gives them in different places.

Mcl-1, sequence (Q07820 whole entry, the tested form may be a part): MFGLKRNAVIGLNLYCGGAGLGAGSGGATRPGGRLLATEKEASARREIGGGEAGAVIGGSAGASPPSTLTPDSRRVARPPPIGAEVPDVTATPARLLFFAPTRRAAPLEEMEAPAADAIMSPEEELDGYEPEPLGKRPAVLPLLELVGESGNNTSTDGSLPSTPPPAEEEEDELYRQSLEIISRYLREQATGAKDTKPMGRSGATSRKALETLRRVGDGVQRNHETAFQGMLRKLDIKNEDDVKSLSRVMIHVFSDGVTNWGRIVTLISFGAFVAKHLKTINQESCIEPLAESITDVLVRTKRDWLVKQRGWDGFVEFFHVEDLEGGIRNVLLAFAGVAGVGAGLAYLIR
Bcl-XL, sequence (Q07817 whole entry): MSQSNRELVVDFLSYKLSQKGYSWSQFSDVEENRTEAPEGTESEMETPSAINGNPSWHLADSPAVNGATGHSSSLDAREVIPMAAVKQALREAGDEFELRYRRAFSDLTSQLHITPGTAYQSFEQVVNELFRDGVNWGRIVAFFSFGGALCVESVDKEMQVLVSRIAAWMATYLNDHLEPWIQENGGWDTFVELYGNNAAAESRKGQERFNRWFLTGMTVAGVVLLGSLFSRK

Regarding `Cc1ccc(-c2ccc(C(=O)O)cc2)cc1` [SK_2_170], the inhibition at 100 µM at Bcl-XL (setting [1]) came to 7 ± 13%; on Mcl-1 (setting [1]), 6.8 ± 1.3%.
As to `Cc1nc(-c2ccccc2)sc1C(=O)NS(=O)(=O)c1ccc(CN2CCN(c3ccccc3)CC2)cc1` [SZ1TA3], the inhibition at 50 µM at Bcl-XL was 6%.
Turning to `CN(CCc1ccccc1)Cc1ccc(S(=O)(=O)NC(=O)c2ccccc2)cc1` [SZ2TA1], the inhibition at 50 µM at Bcl-XL was found to be 2%.
Same read-out and setting: the result for `CN(CCc1ccccc1)Cc1ccc(S(=O)(=O)NC(=O)c2ccc(N3CCC(C)(C)CC3)cc2)cc1` [SZ2TA2] reads 9%.
`Cc1nc(-c2ccccc2)sc1C(=O)NS(=O)(=O)c1ccc(CN(C)CCc2ccccc2)cc1` [SZ2TA3]: on Bcl-XL, the inhibition at 50 µM was found to be 7%.
Still for that read-out and setting: as for `COc1cc2c(cc1OC)C(c1ccccc1)N(CC(=O)NS(=O)(=O)c1ccc(CN(C)CCc3ccccc3)cc1)CC2` (stereo not shown) [SZ2TA4], the figure is 25%; as for `CC(=O)Nc1ccc(S(=O)(=O)NC(=O)c2ccccc2)cc1` [SZ3TA1], 0%; as for `CC(=O)Nc1ccc(S(=O)(=O)NC(=O)c2cccc([N+](=O)[O-])c2)cc1` [SZ3TA6], 0%.
Same read-out and setting: the result for `CC(=O)Nc1ccc(S(=O)(=O)NC(=O)c2cccc3ccccc23)cc1` [SZ3TA7] reads 0%; that for `CC(=O)Nc1ccc(S(=O)(=O)NC(=O)c2ccc(OC(F)(F)F)cc2)cc1` [SZ3TA8], 0%; that for `CC(=O)Nc1ccc(S(=O)(=O)NC(=O)c2ccco2)cc1` [SZ3TA9], 0%.
As to `CC(=O)Nc1ccc(S(=O)(=O)N=[N+]=[N-])cc1` [SZ3], the inhibition at 100 µM was 6.7 ± 4.5% at Bcl-XL (setting [1]) and under 1% at Mcl-1 (setting [1]).
For the molecule `O=C(NS(=O)(=O)c1ccc(NCCSc2ccccc2)c([N+](=O)[O-])c1)c1ccccc1` [SZ4TA1], the inhibition at 50 µM on Bcl-XL was 14%.
As to `CC1(C)CCN(c2ccc(C(=O)NS(=O)(=O)c3ccc(NCCSc4ccccc4)c([N+](=O)[O-])c3)cc2)CC1` [SZ4TA2], at Bcl-XL, the “IC50 against Bcl-XL (in words)” value is on record as “in the nM range” and the inhibition at 50 µM was determined as 100%.
Take `[N-]=[N+]=NS(=O)(=O)c1ccc(NCCSc2ccccc2)c([N+](=O)[O-])c1` [SZ4]: the results for the inhibition at 100 µM at Bcl-XL and on Mcl-1 were under 1% and 23.4 ± 14.9%, respectively.
Take `Cc1ccc(S(=O)(=O)NC(=O)c2ccccc2)cc1` [SZ5TA1]: the inhibition at 50 µM on Bcl-XL stood at 29%.
The same measure, in the same setting: the result for `Cc1ccc(S(=O)(=O)NC(=O)c2ccc(N3CCC(C)(C)CC3)cc2)cc1` [SZ5TA2] reads 28%.
Turning to `Cc1ccc(S(=O)(=O)N=[N+]=[N-])cc1` [SZ5], the “% Inhibition Bcl-XL” value at Bcl-XL (setting [1]) was determined as 2.3 ± 1.1%. Moreover, at Mcl-1 (setting [1]), the “% Inhibition Mcl-1” value is recorded as 1.2 ± 7.9%.
As for `[N-]=[N+]=NS(=O)(=O)c1ccc2ccc(S(=O)(=O)NCCSc3ccccc3)cc2c1` [SZ6], the inhibition at 100 µM stood at 4.6 ± 4.7% at Bcl-XL (setting [1]) and 3.4 ± 0.2% on Mcl-1 (setting [1]).
As to `CC1(C)CCN(c2ccc(C(=O)NS(=O)(=O)c3ccc4ccc(S(=O)(=O)NCCSc5ccccc5)cc4c3)cc2)CC1` [SZ7TA2], the inhibition at 50 µM on Bcl-XL came out at 76%.
In the case of `CC(C)(C)c1ccc(-c2ccc(S(=O)(=O)N=[N+]=[N-])cc2)cc1` [SZ8], the inhibition at 100 µM on Bcl-XL (setting [1]) is 2.2 ± 0.7%; at Mcl-1 (setting [1]), under 1%.
In the case of `[N-]=[N+]=NS(=O)(=O)c1ccc(CN(CCSc2ccccc2)Cc2ccc(S(=O)(=O)NC(=O)c3ccccc3)cc2)cc1` [SZ9TA1], the inhibition at 50 µM on Bcl-XL was 80%.
Same read-out and setting: the result for `CC1(C)CCN(c2ccc(C(=O)NS(=O)(=O)c3ccc(CN(CCSc4ccccc4)Cc4ccc(S(=O)(=O)N=[N+]=[N-])cc4)cc3)cc2)CC1` [SZ9TA2] reads 38%; that for `Cc1nc(-c2ccccc2)sc1C(=O)NS(=O)(=O)c1ccc(CN(CCSc2ccccc2)Cc2ccc(S(=O)(=O)N=[N+]=[N-])cc2)cc1` [SZ9TA3], 22%.
On the same count and under the same terms, as for `COc1cc(OC)cc(C(=O)NS(=O)(=O)c2ccc(CN(CCSc3ccccc3)Cc3ccc(S(=O)(=O)N=[N+]=[N-])cc3)cc2)c1` [SZ9TA5], the figure is 60%.
As to `[N-]=[N+]=NS(=O)(=O)c1ccc(CN(CCSc2ccccc2)Cc2ccc(S(=O)(=O)N=[N+]=[N-])cc2)cc1` [SZ9], the inhibition at 100 µM at Bcl-XL turned out to be 4.7 ± 4%; on Mcl-1, 13 ± 1.4%.
On to `[N-]=[N+]=NS(=O)(=O)c1ccc(CN(CCSc2ccccc2)Cc2ccc(S(N)(=O)=O)cc2)cc1` [SZ10], for which the inhibition at 100 µM at Bcl-XL (setting [1]) is 1.9 ± 3.8%; on Mcl-1 (setting [1]) it was under 1%.
For `COc1cc2c(cc1OC)C(c1ccccc1)N(Cc1ccc(S(=O)(=O)N=[N+]=[N-])cc1)CC2` (stereo not shown) [SZ11] the same measures were under 1% and under 1%.
The corresponding values for `[N-]=[N+]=NS(=O)(=O)c1ccc(CNc2cccc([N+](=O)[O-])c2)cc1` [SZ12] are under 1% and under 1%.
For `[N-]=[N+]=NS(=O)(=O)c1ccc(COc2ccccc2[N+](=O)[O-])cc1` [SZ13], on Bcl-XL (setting [1]), the “% Inhibition Bcl-XL” value turned out to be 3.8 ± 4.1%. Further, the “% Inhibition Mcl-1” value on Mcl-1 (setting [1]) is under 1%.
As to `[N-]=[N+]=NS(=O)(=O)c1ccc(COc2ccc3c(=O)cc(-c4ccccc4)oc3c2)cc1` [SZ14], the inhibition at 100 µM is 7.9 ± 5.8% on Bcl-XL (setting [1]) and 2.1 ± 3.3% on Mcl-1 (setting [1]).
With `O=C(NS(=O)(=O)c1ccc(CN(CCSc2ccccc2)Cc2c(F)cccc2Cl)cc1)c1ccccc1` [SZ15TA1], the “fold less active than SZ31TA2” value on Mcl-1 (Mcl-1 PPIM activity relative to SZ31TA2) is given as “approximately 10 fold”.
In the case of `[N-]=[N+]=NS(=O)(=O)c1ccc(CN(CCSc2ccccc2)Cc2c(F)cccc2Cl)cc1` [SZ15], the results for the inhibition at 100 µM at Bcl-XL (setting [1]) and on Mcl-1 (setting [1]) were 10 ± 0.9% and 25.1 ± 0.7%, respectively.
The corresponding values for `[N-]=[N+]=NS(=O)(=O)c1ccc(-c2ccc(C(F)(F)F)cc2)cc1` [SZ16B] are 1.1 ± 1.2% and 1.3 ± 2.4%.
Regarding `COc1cccc(CN(CCSc2ccccc2)Cc2ccc(S(=O)(=O)N=[N+]=[N-])cc2)c1` [SZ17], the figures for the inhibition at 100 µM at Bcl-XL (setting [1]) and at Mcl-1 (setting [1]) were 2.6 ± 7.8% and 4 ± 1.6%, respectively.
`[N-]=[N+]=NS(=O)(=O)c1ccc(Cl)cc1` [SZ18]: on Bcl-XL (setting [1]), the “% Inhibition Bcl-XL” value is under 1%. In addition, at Mcl-1 (setting [1]), the “% Inhibition Mcl-1” value is reported as under 1%.
Regarding `COc1ccc(S(=O)(=O)N=[N+]=[N-])cc1` [SZ19], on Bcl-XL (setting [1]), the “% Inhibition Bcl-XL” value is reported as under 1%. For the same molecule, on Mcl-1 (setting [1]), the “% Inhibition Mcl-1” value is reported as under 1%.
For the molecule `Cc1ccccc1S(=O)(=O)N=[N+]=[N-]` [SZ20], the “% Inhibition Bcl-XL” value at Bcl-XL (setting [1]) turned out to be 1.4 ± 1.6%. Further, on Mcl-1 (setting [1]), the “% Inhibition Mcl-1” value came out at 6.2 ± 2.1%.
As to `CN(C)c1cccc2c(S(=O)(=O)N=[N+]=[N-])cccc12` [SZ21], the inhibition at 100 µM at Bcl-XL (setting [1]) was 1.1%; at Mcl-1 (setting [1]), 49.3 ± 3.3%.
For `[N-]=[N+]=NS(=O)(=O)CCN1CCCC2CCCCC21` (stereo not shown) [SZ22] the same measures were under 1% and 1.2 ± 1.2%.
For `[N-]=[N+]=NS(=O)(=O)CCN1CCc2ccccc2C1` [SZ23] the same measures were 3.3 ± 2.1% and 3.6 ± 5.2%.
For `[N-]=[N+]=NS(=O)(=O)CCN1CCC(Cc2ccccc2)CC1` [SZ24] the same measures were under 1% and 2.7 ± 7.5%.
In the case of `[N-]=[N+]=NS(=O)(=O)CCN1CCN(Cc2ccc3c(c2)OCO3)CC1` [SZ25], the inhibition at 100 µM on Bcl-XL (setting [1]) and on Mcl-1 (setting [1]) was under 1% each time.
As to `[N-]=[N+]=NS(=O)(=O)CCN(Cc1ccccc1)Cc1ccccc1` [SZ26], the inhibition at 100 µM at Bcl-XL (setting [1]) and at Mcl-1 (setting [1]) was under 1% each time.
Turning to `COc1cc2c(cc1OC)C(c1ccccc1)N(CCS(=O)(=O)N=[N+]=[N-])CC2` (stereo not shown) [SZ27], the inhibition at 100 µM on Bcl-XL (setting [1]) came to 4 ± 0.1%; on Mcl-1 (setting [1]), 13.9 ± 0.05%.
For `[N-]=[N+]=NS(=O)(=O)CCN(CCSc1ccccc1)Cc1ccc2c(c1)OCO2` [SZ28], the inhibition at 100 µM on Bcl-XL (setting [1]) and on Mcl-1 (setting [1]) was under 1% each time.
For `[N-]=[N+]=NS(=O)(=O)c1ccc(NCc2ccc(Br)cc2)cc1` [SZ29], the inhibition at 100 µM on Bcl-XL is under 1%; on Mcl-1, 5.7 ± 4.6%.
For the molecule `CCN(CC)c1ccc(CNc2ccc(S(=O)(=O)N=[N+]=[N-])cc2)cc1` [SZ30], the inhibition at 100 µM on Bcl-XL (setting [1]) and on Mcl-1 (setting [1]) was under 1% each time.
Regarding `CC1(C)CCN(c2ccc(C(=O)NS(=O)(=O)c3ccc(CN(CSc4ccccc4)Cc4ccc5c(c4)OCO5)cc3)cc2)CC1` [SZ31TA2], the IC50 (in general, the concentration at which inhibition is half-maximal) at Mcl-1 (FP assay, read-out: IC50 against Mcl-1) came out at 3.3 µM. At Mcl-1 (against Mcl-1), the ligand efficiency was 0.159.
For the molecule `O=C(NS(=O)(=O)c1ccc(CN(CSc2ccccc2)Cc2ccc3c(c2)OCO3)cc1)c1ccc(OC(F)(F)F)cc1` [SZ31TA8], the selectivity index on Mcl-1 (calculated, Mcl-1 over Bcl-XL) is 19.
As for `[N-]=[N+]=NS(=O)(=O)c1ccc(CN(CCSc2ccccc2)Cc2ccc3c(c2)OCO3)cc1` [SZ31], the inhibition at 100 µM at Bcl-XL (setting [1]) and at Mcl-1 (setting [1]) was under 1% throughout.
With `CC1(C)CCN(c2ccc(C(=O)O)cc2)CC1` [TA2], the inhibition at 100 µM was under 1% on Bcl-XL (setting [1]) and 6.8 ± 6.7% on Mcl-1 (setting [1]).
As for `Cc1nc(-c2ccccc2)sc1C(=O)O` [TA3], the inhibition at 100 µM on Bcl-XL (setting [1]) was under 1%; on Mcl-1 (setting [1]), 1.4 ± 3.6%.
For the molecule `COc1cc2c(cc1OC)C(c1ccccc1)N(CC(=O)O)CC2` (stereo not shown) [TA4], the figures for the inhibition at 100 µM at Bcl-XL (setting [1]) and at Mcl-1 (setting [1]) were under 1% and 1.5 ± 0.7%, respectively.
For `COc1cc(OC)cc(C(=O)O)c1` [TA5] the same measures were under 1% and 1.3 ± 13.4%.
For `O=C(O)c1cccc([N+](=O)[O-])c1` [TA6] the same measures were under 1% and under 1%.
The corresponding values for `O=C(O)c1cccc2ccccc12` [TA7] are under 1% and 2.4 ± 6.8%.
Turning to `O=C(O)c1ccc(OC(F)(F)F)cc1` [TA8], the inhibition at 100 µM turned out to be 4 ± 1.2% on Bcl-XL (setting [1]) and 3.6 ± 12.7% at Mcl-1 (setting [1]).
For `O=C(O)c1ccco1` [TA9] the same measures were under 1% and under 1%.
The corresponding values for `O=C(O)c1ccno1` [TA10] are 2 ± 1.7% and under 1%.

Values taken from US20130203709A1, “ACYLSULFONAMIDES AND PROCESSES FOR PRODUCING THE SAME” (priority 2010, published 2013).
